We go through 1 substance from patent US20150140015A1, “METHODS AND PHARMACEUTICAL COMPOSITIONS FOR THE TREATMENT OF PANCREATIC CANCER” (INSERM (Institut National de la Sante et de la Recherche …, priority 2013, published 2015).

Entries after “also recorded” stand apart in the source; their conditions may differ.

One experiment has as its system AsPC-1 cells. Put plainly: Quantification of apoptotic cells by annexin V-PE labeling in AsPC-1 cells. The settings on record: 1 μM orexin-A, 48 hr. The class given is cell-based, human. As for the experimental part: FIG. 4A-C. Effect of orexin-A on apoptosis in AsPC-1 cells. A, SHP-2 protein tyrosine phosphatase inhibitor, NSC-87877, blocks orexin-induced apoptosis. AsPC-1 cells were challenged with (black bars) or without (white bars) 1 μM orexin-A for 48 hr in the absence or presence of NSC-87877 (50 μM). Apoptosis was measured by determination of annexin V-PE binding, and results are expressed as the percentage of apoptotic cells; B and C: Indirect immunostaining of activated caspase-3 in AsPC-1 cells in the presence or absence of orexin-A. Paraformaldehyde-fixed AsPC-1 cells were challenged with (orexin-A) or without (basal) 1 μM orexin-A for 48 hr. Activated caspase-3 immunostaining is shown in B and scored in C. Results are means±SE of three separate experiments. ***p<0.001; ns, non-significant.
AsPC-1, SW 1990, HPAF-II and HPAF-II/hOX1R cells (seeded at 5×10^4 cells/well) were grown in 24-well plates for 24 hr under the culture conditions described above. The culture medium was then replaced every 24 hr with fresh medium with or without orexin-A (GL Biochemicals) at a concentration of 1 μM in the presence or absence of the SHP-2 inhibitor, NSC-87877 (50 μM) (Calbiochem, VWR International SAS, France). At the end of the treatment (48 hr), apoptotic cells were determined using the Guava Nexin™ kit (Guava Technologies, Hayward, Calif., USA), which discriminates between apoptotic and non-apoptotic cells (Rouet-Benzineb P, Rouyer-Fessard C, Jarry A, et al. Orexins Acting at Native OX1 Receptor in Colon Cancer and Neuroblastoma Cells or at Recombinant OX1 Receptor Suppress Cell Growth by Inducing Apoptosis. J Biol Chem 2004; 279:45875-86), analyzed with the Guava Personal Cell Analysis (PCA) system (Merck-Millipore, Guyancourt, France), and counted (2,000 events) (Voisin et al, 2008, as above). Results are expressed as the percentage of apoptotic phycoerythrin-labelled Annexin V (Annexin V-PE) positive cells and are the means of 3 independent analyses.

Experiment [1] deals with recombinant OX1R/HPAF-II cells. Put plainly: Activated caspase-3 immunostaining in recombinant OX1R/HPAF-II cells. Format: cell-based, human. The conditions noted are these: 1 μM orexin-A, 48 hr. As for the experimental part:
FIGS. 5A and B. Effect of orexin-A on apoptosis in OX1R expressing recombinant OX1R/HPAF-II cells. A, Parental HPAF-II and recombinant OX1R/HPAF-II cells were challenged with (black bars) or without (white bars) 1 μM orexin-A for 48 hr in the absence or presence of the SHP-2 protein tyrosine phosphatase inhibitor, NSC-87877 (50 μM). Apoptosis was measured by determination of annexin V-PE binding. Results are expressed as the percentage of apoptotic cells, and are the means±SE of three separate experiments. ***p<0.001; ns, non-significant; B, paraformaldehyde-fixed HPAF-II cells and recombinant OX1R/HPAF-II cells were challenged with or without (Basal) 1 μM orexin-A for 48 hr. […]
After dewaxing, rehydrating tumor paraffin sections, and antigen retrieval by pretreatment with high temperature at pH 9, immunohistochemical procedures were carried out using an automated immunohistochemical stainer according to the manufacturer's guidelines (Bond-Max slide stainer, Menarini, Leica Microsystems). […] OX1R immunostaining was evaluated by two investigators (TV and AC) by calculating a score (0-300) obtained by multiplying the intensity (negative, 0; weak, 1; moderate, 2; and strong, 3) by the percentage of stained cells. The pattern of expression (cytoplasmic, membranous, and nuclear) was also recorded, and a mean score was calculated for each tumor. […]

The subject of experiment [2] is AsPC-1 cells xenografted in nude mice. Put plainly: Tumorigenicity assay: AsPC-1 cells xenografted in nude mice. Format: in vivo. The settings on record: for decrease of tumor volume: 30-day treatment; for activated caspase-3 immunostaining in xenografted AsPC-1 tumors: orexin-A 1 μmoles/Kg daily i.p., 30 days. As for the experimental part:
FIGS. 6A and B. Effect of daily inoculation of orexin-A on the growth of tumors developed by xenografting human PDCA cells in nude mice. AsPC-1 cells were inoculated in the flank of nude mice at day 0. Mice were injected daily intraperitoneally with 100 μl of orexin-A solutions starting at day 0 (◯) or day 14 (▴) or with 100 μl of PBS ([…]) for controls. A, the daily treatment corresponded to 1 μmoles of orexin-A/Kg. Inset represents the tumor weight measured at the end of the experiment after the mice were sacrificed; B, mice received 0.01, 0.1, 1 or 10 μmoles of orexin-A/kg. After 30 days of treatment, mice were sacrificed and tumor volume and weight were then recorded. The development of tumors was followed by caliper measurement. Data are the means±SE of 6 tumors in each group. *** p<0.01 versus control.
FIG. 7A-F. Indirect immunostaining of activated caspase-3 in xenografted AsPC-1 tumors resected from nude mice. Paraformaldehyde-fixed xenografted AsPC-1 tumors from nude mice treated daily (B, D and F) by intraperitoneal injections with 1 μmoles/Kg orexin-A or not (A, C and E). […] OX1R immunostaining localisation was similar under control and orexin-A treatment conditions.
Control mice received PBS.
After dewaxing, rehydrating tumor paraffin sections, and antigen retrieval by pretreatment with high temperature at pH 9, immunohistochemical procedures were carried out using an automated immunohistochemical stainer according to the manufacturer's guidelines (Bond-Max slide stainer, Menarini, Leica Microsystems). For immunohistochemistry on cell lines, cells in pellets were fixed in formalin, embedded in cell blocks (Shandon Cytoblock; Thermo Scientific; USA) and cut into 3 μm sections. OX1R evaluation was performed in human PDAC, included in TMA, in xenografted tumors and in cell lines (AsPC-1, HPAF-II and HPAF-II/hOX1R). After antigen retrieval, 3 μm cells or tissue sections were incubated for 30 minutes with a polyclonal anti-OX1R antibody (My Bio Source; polyclonal goat; 1/300), rinsed, and then incubated with a biotinylated secondary rabbit anti-goat antibody (Vector BA-500; 1/400). Sections were rinsed and incubated with Streptavidin (TrekAvidin-HRP; Biocare Medical) and DAB ultraview detection kit (Bond Polymer Refine detection; DS9800; Leica Microsystems). Substitution of the primary antibody with PBS was used as a negative control. OX1R immunostaining was evaluated by two investigators (TV and AC) by calculating a score (0-300) obtained by multiplying the intensity (negative, 0; weak, 1; moderate, 2; and strong, 3) by the percentage of stained cells. The pattern of expression (cytoplasmic, membranous, and nuclear) was also recorded, and a mean score was calculated for each tumor. Internal positive controls consisted of normal pancreatic islets while the HEK/hOX1R cell line served as an external positive control. Specificity of the immunostaining was verified by incubation of OX1R antibody with its homologous immunogenic peptide or omission of the primary antibody. Apoptosis determination was performed in tumor cell lines (AsPC-1, HPAF-II and HPAF-II/hOX1R) and resected xenografts, treated or not with orexin-A. Three μm cell sections were immunolabelled for activated caspase-3 after antigen retrieval (ABGENT; cleaved caspase 3; polyclonal rabbit; 1/100) using a detection kit (Bond Polymer Refine detection; DS9800; Leica Microsystems). Substitution of the primary antibody with PBS was used as a negative control. External positive controls consisted of normal lymph nodes. Cleaved caspase-3 immunostaining was determined by calculating the percentage of tumor cells stained in 10 fields of xenografted tumor cells, each field comprising 500 tumor cells.

“orexin-A: 33 amino acid hypothalamic neuropeptide, OX1R agonist, SEQ ID NO:2; peptide from GL Biochemicals”: the “percentage of apoptotic cells (annexin V-PE)” value with AsPC-1 cells is 24.3%±1.4. In experiment [1], the caspase-3 activation entry is “strong caspase-3 activation”. Besides, the “decrease in tumor volume as compared to untreated mice” value in experiment [2] (1 μmol/kg daily i.p. beginning the day cells were xenografted) was 48.8%. Besides, the “volume of established tumors” value in experiment [2] (1 μmol/kg daily, started 14 days after cell inoculation) is “rapidly and strongly reduced”. For the same substance, the “weight of tumors, treatment from day 0 versus from day 14” value in experiment [2] (1 μmol/kg daily, tumors resected after sacrifice) is recorded as “No differences”. Also, the “tumoral cell death (Hemalum Eosin Safran staining)” value in experiment [2] (1 μmoles/Kg orexin-A daily i.p.) was “induced tumoral cell death”. Besides, the “decrease of tumor volume” value in experiment [2] (0.01 moles orexin-A/kg (so in the source)) amounted to 34.4%; in experiment [2] (0.1 moles orexin-A/kg (so in the source)), 30.6%; in experiment [2] (1 moles orexin-A/kg (so in the source)), 46.7%; in experiment [2] (10 moles orexin-A/kg (so in the source)) it was 52.8%. The “decline of tumor progression” value in experiment [2] (Example 1, Orexin-A injection) worked out at 49%. For the same substance, the “activated caspase-3 immunostaining in xenografted AsPC-1 tumors” value is “intense staining” in experiment [2] and “strong immunostaining; also recorded: Induction of apoptosis was observed” in experiment [2] (listed as Orexin-A).
